≈ marks a conversion by molar mass, not a printed value. Where two headings read alike, the source gives them in different places.
Key:
Assay type in all cases: cell-based
[1] = system: Klebsiella pneumoniae (American Type Culture Collection number 10031); test: MIC, Nutrient Broth; details: K. pneumoniae, 37° C., 20 hours
[2] = system: Staphylococcus aureus ATCC 25923 MSSA; test: MIC, Microdilution Broth Method (NCCLS)
[3] = system: Staphylococcus epidermidis ATCC 27626; test: MIC, Microdilution Broth Method (NCCLS); details: ATCC27626
[4] = system: Enterobacter cloacae ATCC 13047; test: MIC, Microdilution Broth Method (NCCLS); details: ATCC13047
[5] = system: Staphylococcus epidermidis ATCC 1228; test: MIC, Microdilution Broth Method (NCCLS); details: ATCC1228
[6] = system: Staphylococcus aureus ATCC 6538 MSSA; test: MIC, Microdilution Broth Method (NCCLS)
[7] = system: Staphylococcus aureus ATCC 29213 MSSA; test: MIC, Microdilution Broth Method (NCCLS)
[8] = system: Micrococcus luteus ATCC 9341; test: MIC, Microdilution Broth Method (NCCLS); details: ATCC9341
[9] = system: methicillin-resistant (MR) Staphylococcus aureus (American Type Culture Collection number 33591); test: MIC, Nutrient Broth; details: S. aureus (MR), 37° C., 20 hours
[10] = system: Escherichia coli ATCC 25922; test: MIC, Microdilution Broth Method (NCCLS); details: ATCC25922
[11] = system: Helicobacter pylori (American Type Culture Collection number 43504); test: MIC, Columbia agar base with 7% sheep blood; details: H. pylori, 35° C., 72 hours
[12] = system: clinical isolates of aminoglycoside and erythromycin resistant Streptococcus pneumoniae; test: MIC, tryptic soy broth with 7% calf serum
[13] = system: Mycobacterium ranae (American Type Culture Collection number 110); test: MIC, Brain Heart Infusion broth; details: M. ranae, 37° C., 48 hours
[14] = system: Enterococcus faecalis (Vancomycin resistant strain); test: MIC, Microdilution Broth Method (NCCLS)
[15] = system: Enterococcus faecalis ATCC 29212; test: MIC, Microdilution Broth Method (NCCLS)
[16] = system: Pseudomonas aeruginosa ATCC 27853; test: MIC, Microdilution Broth Method (NCCLS); details: ATCC27853
[17] = system: Klebsiella pneumoniae ATCC 13883; test: MIC, Microdilution Broth Method (NCCLS); details: ATCC13883
[18] = system: Pseudomonas aeruginosa (American Type Culture Collection number 9027); test: MIC, Nutrient Broth; details: P. aeruginosa, 37° C., 20 hours
[19] = system: Staphylococcus capitis (American Type Culture Collection number 35661); test: MIC, two fold serial dilution in 2xYT broth; details: 37° C., 18 hours
[20] = system: Klebsiella pneumoniae (American Type Culture Collection number 13883); test: MIC, two fold serial dilution in 2xYT broth; details: 37° C., 18 hours
[21] = system: Enterobacter cloacae (American Type Culture Collection number 13047); test: MIC, two fold serial dilution in 2xYT broth; details: 37° C., 18 hours
E. coli strain DH5α = test: MIC, two fold serial dilution in 2xYT broth; details: Escherichia coli, 37° C., 18 hours
[22] = system: Escherichia coli ATCC 12014; test: MIC, Microdilution Broth Method (NCCLS); details: ATCC12014
[23] = system: Morganella morganii ATCC 36030; test: MIC, Microdilution Broth Method (NCCLS); details: ATCC36030
[24] = Staphylococcus aureus ATCC 25923 MSSA, read-out: MIC
[25] = Staphylococcus epidermidis ATCC 27626, read-out: MIC
[26] = Staphylococcus epidermidis ATCC 1228, read-out: MIC
[27] = Staphylococcus aureus ATCC 6538 MSSA, read-out: MIC
[28] = Staphylococcus aureus ATCC 29213 MSSA, read-out: MIC
[29] = Micrococcus luteus ATCC 9341, read-out: MIC
[30] = Helicobacter pylori, read-out: MIC
[31] = Streptococcus pneumoniae, S. pneumoniae, tryptic soy broth, 7% calf serum, 37° C., 48 hours, read-out: MIC
[32] = Enterococcus faecalis (Vancomycin resistant strain), Gram-positive table, read-out: MIC
[33] = ATCC29212, Enterococcus faecalis ATCC 29212, Gram-positive table, read-out: MIC
[34] = Pseudomonas aeruginosa, read-out: MIC
[35] = Enterococcus faecalis Vancomycin resistant strain (multi-resistant clinical isolate), read-out: MIC
[36] = ATCC29212, Enterococcus faecalis ATCC 29212, table of multi-resistant clinical isolate, read-out: MIC
[37] = Enterococcus faecalis, ATCC29212
[38] = Enterococcus faecalis Vancomycin resistant strain (multi-resistant clinical isolate)
[39] = Enterococcus faecalis ATCC 29212, table of multi-resistant clinical isolate

In the case of `CCCCC(CN(O)C=O)C(=O)N[C@H](C(=O)NC)C(C)(C)C` (single isomer, unassigned) [Compound 1, 2R (or S)-[(Formyl-hydroxy-amino)-methyl]-hexanoic acid-(2,2-dimethyl-1S-methyl-carbamoyl-propyl)-amide], the MIC ([1]; Klebsiella pneumoniae, read-out: MIC) is reported as 0.2 µg/mL (≈ 0.634 µM), the MIC [2, 24] is reported as 16 µg/mL (≈ 50.7 µM) and the MIC [3, 25] is reported as 8 µg/mL (≈ 25.4 µM). It also gave an MIC [4] of 32 µg/mL (≈ 101 µM), an MIC [5, 26] of 8 µg/mL (≈ 25.4 µM) and an MIC [6, 27] of 8 µg/mL (≈ 25.4 µM). It also gave an MIC [7, 28] of 32 µg/mL (≈ 101 µM), an MIC [8, 29] of 0.5 µg/mL (≈ 1.59 µM) and an MIC ([9]; Staphylococcus aureus, read-out: MIC) of 3.13 µg/mL (≈ 9.92 µM). It also gave an MIC [10] of 4 µg/mL (≈ 12.7 µM), an MIC [11, 30] of 0.1 µg/mL (≈ 0.317 µM) and an MIC [12, 31] of 50 µg/mL (≈ 159 µM). The MIC [13] was 0.78 µg/mL (≈ 2.47 µM), the MIC [14, 32] was 128 µg/mL (≈ 406 µM) and the MIC [15, 33] was 32 µg/mL (≈ 101 µM). The MIC [16] was > 128 µg/mL, the MIC [17] was 16 µg/mL (≈ 50.7 µM) and the MIC [18, 34] was 12.5 µg/mL (≈ 39.6 µM). The MIC [19] was 100 µM (≈ 31.5 µg/mL), the MIC [20] was 25 µM (≈ 7.89 µg/mL) and the MIC [21] was 50 µM (≈ 15.8 µg/mL). It also gave an MIC (E. coli strain DH5α) of 12.5 µM (≈ 3.94 µg/mL), an MIC [22] of 4 µg/mL (≈ 12.7 µM) and an MIC [23] of 128 µg/mL (≈ 406 µM).

`CC1(C)S[C@@H]2[C@H](NC(=O)[C@H](N)c3ccccc3)C(=O)N2[C@H]1C(=O)O` [Ampicillin, ampicillin] was tested, and the MIC [11, 30] was 0.1 µg/mL (≈ 0.286 µM), the MIC ([12]; Streptococcus pneumoniae, 48 h) was 3.13 µg/mL (≈ 8.96 µM) and the MIC [14, 35] was > 128 µg/mL. The MIC [15, 36] was 0.5 µg/mL (≈ 1.43 µM) and the MIC [18, 34] was 100 µg/mL (≈ 286 µM).

In the case of `CC(C)(O/N=C(\C(=O)N[C@@H]1C(=O)N2C(C(=O)[O-])=C(C[n+]3ccccc3)CS[C@H]12)c1csc(N)n1)C(=O)O` [Ceftazidime], the MIC ([14]; Enterococcus faecalis) is reported as > 128 µg/mL and the MIC [15, 37] is reported as 128 µg/mL (≈ 234 µM).

`CCCCC(CN(O)C=O)C(=O)N[C@H](C(=O)N(C)C)C(C)(C)C` (stereo partly drawn) [Compound 3, 2R (or S)-[(Formyl-hydroxy-amino)-methyl]-hexanoic acid-(1S-dimethylcarbamoyl-2,2-dimethyl-propyl)-amide] was tested, and the MIC [2, 24] was 16 µg/mL (≈ 48.6 µM), the MIC [3, 25] was 2 µg/mL (≈ 6.07 µM) and the MIC [4] was 32 µg/mL (≈ 97.1 µM). The MIC [5, 26] was 4 µg/mL (≈ 12.1 µM), the MIC [6, 27] was 4 µg/mL (≈ 12.1 µM) and the MIC [7, 28] was 8 µg/mL (≈ 24.3 µM). It also gave an MIC [8, 29] of 0.5 µg/mL (≈ 1.52 µM), an MIC [10] of 4 µg/mL (≈ 12.1 µM) and an MIC [14, 32] of 8 µg/mL (≈ 24.3 µM). It also gave an MIC [14, 38] of 8 µg/mL (≈ 24.3 µM), an MIC [15, 33] of 32 µg/mL (≈ 97.1 µM) and an MIC [15, 39] of 32 µg/mL (≈ 97.1 µM). The MIC [16] was 128 µg/mL (≈ 389 µM), the MIC [17] was 16 µg/mL (≈ 48.6 µM) and the MIC [22] was 4 µg/mL (≈ 12.1 µM). The MIC [23] was > 128 µg/mL.

Work on `CN(C)C(=O)[C@@H](NC(=O)C(CC1CCCC1)CN(O)C=O)C(C)(C)C` (stereo partly drawn) [Cpd 4, 2R (or S)-[(Formyl-hydroxy-amino)-methyl]-3-cyclopentyl-propionic acid (1S-dimethyl-carbamoyl-2,2-dimethyl-propyl)-amide] yielded an MIC [14, 35] of 4 µg/mL (≈ 11.3 µM) and an MIC [15, 36] of 8 µg/mL (≈ 22.5 µM).

With `CC[C@H]1OC(=O)[C@H](C)[C@@H](O[C@H]2C[C@@](C)(OC)[C@@H](O)[C@H](C)O2)[C@H](C)[C@@H](O[C@@H]2O[C@H](C)C[C@H](N(C)C)[C@H]2O)[C@](C)(O)C[C@@H](C)C(=O)[C@H](C)[C@@H](O)[C@]1(C)O` [Erythromycin, erythromycin] the MIC [12, 31] was 100 µg/mL (≈ 136 µM), the MIC [14, 35] was > 128 µg/mL and the MIC [15, 36] was 2 µg/mL (≈ 2.73 µM).

In the case of `C[C@@H](O)[C@H]1C(=O)N2C(C(=O)O)=C(SCCN=CN)C[C@H]12` [Imipenem], the MIC [14, 35] is reported as > 128 µg/mL and the MIC [15, 36] is reported as 1 µg/mL (≈ 3.34 µM).

In the case of `CN[C@H](CC(C)C)C(=O)N[C@H]1C(=O)N[C@@H](CC(N)=O)C(=O)N[C@H]2C(=O)N[C@H]3C(=O)N[C@H](C(=O)N[C@H](C(=O)O)c4cc(O)cc(O)c4-c4cc3ccc4O)[C@H](O)c3ccc(c(Cl)c3)Oc3cc2cc(c3O[C@@H]2O[C@H](CO)[C@@H](O)[C@H](O)[C@H]2O[C@H]2C[C@](C)(N)[C@H](O)[C@H](C)O2)Oc2ccc(cc2Cl)[C@H]1O` [Vancomycin, reference compound], the MIC ([2]; Staphylococcus aureus) is reported as 0.5 µg/mL (≈ 0.345 µM), the MIC ([3]; Staphylococcus epidermidis) is reported as 0.5 µg/mL (≈ 0.345 µM) and the MIC ([5]; Staphylococcus epidermidis) is reported as 0.5 µg/mL (≈ 0.345 µM). It also gave an MIC ([6]; Staphylococcus aureus) of 0.5 µg/mL (≈ 0.345 µM), an MIC ([7]; Staphylococcus aureus) of 0.25 µg/mL (≈ 0.173 µM) and an MIC ([8]; Micrococcus luteus) of 0.25 µg/mL (≈ 0.173 µM). The MIC ([14]; Enterococcus faecalis) was > 128 µg/mL, the MIC [14, 38] was >128 µg/mL and the MIC [15, 39] was 1 µg/mL (≈ 0.69 µM). It also gave an MIC [15, 37] of 1 µg/mL (≈ 0.69 µM).

`CC1(C)S[C@@H]2[C@H](NC(=O)C(C(=O)O)c3ccccc3)C(=O)N2[C@H]1C(=O)O` (stereo partly drawn) [carbenicillin] was tested, and the MIC [19] was < 1.56 µM, the MIC [20] was 200 µM (≈ 75.7 µg/mL) and the MIC [21] was > 200 µM. The MIC (E. coli strain DH5α) was 25 µM (≈ 9.46 µg/mL).

With `O=C(N[C@H](CO)[C@H](O)c1ccc([N+](=O)[O-])cc1)C(Cl)Cl` [chloramphenicol] the MIC [19] was 6.25 µM (≈ 2.02 µg/mL), the MIC [20] was 12.5 µM (≈ 4.04 µg/mL) and the MIC [21] was 25 µM (≈ 8.08 µg/mL). The MIC (E. coli strain DH5α) was 3.12 µM (≈ 1.01 µg/mL).

In the case of `NC[C@H]1O[C@H](O[C@H]2[C@H](O)[C@@H](O[C@H]3O[C@H](CO)[C@@H](O)[C@H](N)[C@H]3O)[C@H](N)C[C@@H]2N)[C@H](O)[C@@H](O)[C@@H]1O` [kanamycin], the MIC [19] is reported as < 1.56 µM, the MIC [20] is reported as 25 µM (≈ 12.1 µg/mL) and the MIC [21] is reported as 50 µM (≈ 24.2 µg/mL). For the same compound, the MIC (E. coli strain DH5α) was 12.5 µM (≈ 6.06 µg/mL).

With gentamycin [reference compound] the MIC [1] was 0.39 µg/mL, the MIC [9] was 0.78 µg/mL and the MIC [11] was 0.78 µg/mL. The MIC ([12]; S. pneumoniae, tryptic soy broth, 7% calf serum, 37° C., 48 hours) was 100 µg/mL and the MIC [18] was 0.78 µg/mL.
